Measured values from PubChem BioAssay (NCI).
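Five concentrations, 48 hours, 96-well plates. GI50 marks 50% less growth. Definition used: TGI = concentration required for complete inhibition of growth.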

Key:
Assay in all cases: NCI tumour cell line growth inhibition, 48 h
[1] = tested on: ACHN renal
[2] = tested on: HCC-2998 colon
[3] = tested on: HCT-15 colon
[4] = tested on: NCI-H23 lung
[5] = tested on: SF-539 CNS
[6] = tested on: SK-MEL-28 melanoma
[7] = tested on: SK-MEL-5 melanoma
[8] = tested on: MCF7 breast
[9] = tested on: OVCAR-3 ovarian
[10] = tested on: T-47D breast

COc1nc2c(c(O)c(C)c(=O)n2OC2OCC(OC(C)=O)C(OC(C)=O)C2OC(C)=O)c(=O)n1C (stereo not drawn)
TGI [1]: > 100 µM | TGI [2]: > 100 µM | TGI [3]: > 100 µM | TGI [4]: > 100 µM | TGI [5]: > 100 µM | TGI [6]: > 100 µM | TGI [7]: > 100 µM

COc1ccc(OC)c(/C=C/c2nc(=S)n(-c3ccc(Cl)cc3)[nH]2)c1
GI50 [1]: 23.8 µM | TGI [1]: > 100 µM | GI50 [2]: 13.3 µM | TGI [2]: > 100 µM | GI50 [3]: 4.39 µM | TGI [3]: > 100 µM | GI50 [8]: 4.44 µM | TGI [8]: > 100 µM | GI50 [4]: 5.88 µM | TGI [4]: > 100 µM | GI50 [9]: 3.34 µM | TGI [9]: 21.4 µM | GI50 [5]: 4.05 µM | TGI [5]: 97.9 µM | GI50 [6]: 11.1 µM | TGI [6]: > 100 µM | GI50 [7]: 3.58 µM | TGI [7]: > 100 µM | GI50 [10]: 4.51 µM | TGI [10]: > 100 µM

O=c1cc(O)cc2n1CCC2
TGI [1]: > 100 µM | TGI [2]: > 100 µM | TGI [3]: > 100 µM | TGI [9]: > 100 µM | TGI [5]: > 100 µM | TGI [7]: > 100 µM

COc1cc2c(N3CCN(C(=O)Nc4ccc(OC(C)C)cc4)CC3)ncnc2cc1OCCCN1CCCCC1
GI50 [1]: 20.8 µM | TGI [1]: 55.6 µM | GI50 [2]: 19.6 µM | TGI [2]: 44.3 µM | GI50 [3]: 16.7 µM | TGI [3]: 36.1 µM | GI50 [8]: 13.4 µM | TGI [8]: 36.6 µM | GI50 [4]: 14.6 µM | TGI [4]: 39.1 µM | GI50 [9]: 22.2 µM | TGI [9]: > 59 µM | GI50 [5]: 6.43 µM | TGI [5]: 22.3 µM | GI50 [6]: 15.1 µM | TGI [6]: 30.9 µM | GI50 [7]: 13.2 µM | TGI [7]: 26 µM | GI50 [10]: 16.6 µM | TGI [10]: 61.5 µM

COC(=O)/C=C(/C(=O)OC)C1(C)c2cc(C(=O)OC)c(C(=O)OC)c(N)c2C(=N)N1c1ccccc1 (stereo not drawn)
TGI [1]: 48.7 µM | TGI [2]: 51.6 µM | TGI [3]: > 100 µM | TGI [4]: 45.6 µM | TGI [9]: 38.3 µM | TGI [5]: 48.9 µM | TGI [6]: 36.5 µM

C[C@]12CC[C@H]3[C@@H](CCC4=CC(=O)CC[C@@]43C)[C@@H]1CC[C@@H]2c1csc(N)n1
GI50 [1]: 6.4 µM | TGI [1]: 40.6 µM | GI50 [2]: 5.08 µM | TGI [2]: 19.6 µM | GI50 [3]: 4.2 µM | TGI [3]: 19.1 µM | GI50 [8]: 3.42 µM | TGI [8]: 15.5 µM | GI50 [4]: 2.85 µM | TGI [4]: 19.9 µM | GI50 [9]: 3.38 µM | TGI [9]: 12.3 µM | GI50 [5]: 9.2 µM | TGI [5]: 27 µM | GI50 [6]: 10 µM | TGI [6]: 26 µM | GI50 [7]: 1.69 µM | TGI [7]: 5.41 µM | GI50 [10]: 2.26 µM | TGI [10]: 18.8 µM

CN(C)CCCC1(c2ccc(F)cc2)OCc2cc(-c3cccc4[nH]ccc34)ccc21 (stereo not drawn)
GI50 [1]: 1.68 µM | TGI [1]: 3.04 µM | GI50 [2]: 1.54 µM | TGI [2]: 2.94 µM | GI50 [3]: 1.83 µM | TGI [3]: 3.42 µM | GI50 [8]: 1.55 µM | TGI [8]: 3.25 µM | GI50 [4]: 1.83 µM | TGI [4]: 3.62 µM | GI50 [9]: 1.79 µM | TGI [9]: 3.35 µM | GI50 [5]: 1.67 µM | TGI [5]: 3.12 µM | GI50 [6]: 1.83 µM | TGI [6]: 3.27 µM | GI50 [7]: 1.75 µM | TGI [7]: 3.17 µM | GI50 [10]: 1.75 µM | TGI [10]: 3.78 µM

COc1ccc2sc3c(NCCCN)nc4ccccc4c3c(=O)c2c1
GI50 [1]: 1.69 µM | TGI [1]: 3.07 µM | GI50 [2]: 1.66 µM | TGI [2]: 3.34 µM | GI50 [3]: 1.54 µM | TGI [3]: 3.05 µM | GI50 [8]: 1.7 µM | TGI [8]: 3.48 µM | GI50 [4]: 1.76 µM | TGI [4]: 3.43 µM | GI50 [9]: 1.77 µM | TGI [9]: 3.32 µM | GI50 [5]: 1.75 µM | TGI [5]: 3.17 µM | GI50 [6]: 1.8 µM | TGI [6]: 3.28 µM | GI50 [7]: 1.82 µM | TGI [7]: 3.37 µM | GI50 [10]: 1.74 µM | TGI [10]: 3.65 µM

CCn1c2c(c3ccccc3c1=O)C(=O)c1ccccc1-2
TGI [3]: > 100 µM | TGI [8]: > 100 µM | TGI [4]: > 100 µM | TGI [9]: > 100 µM | TGI [5]: 39.7 µM | TGI [6]: > 100 µM | TGI [7]: > 100 µM | TGI [10]: > 100 µM

O=C(NC1C(=O)NNC1c1cccc([N+](=O)[O-])c1)c1ccccc1 (stereo not drawn)
TGI [1]: > 100 µM | TGI [2]: > 100 µM | TGI [4]: > 100 µM | TGI [9]: > 100 µM | TGI [6]: > 100 µM | TGI [7]: > 100 µM

COC(=O)C1C(=O)O[C@@H](c2ccc3c(c2)OCO3)C1C(=O)OC (mixture of isomers)
TGI [1]: > 100 µM | TGI [2]: > 100 µM | TGI [3]: > 100 µM | TGI [4]: > 100 µM | TGI [9]: > 100 µM | TGI [5]: > 100 µM | TGI [6]: > 100 µM | TGI [7]: > 100 µM

O=C1CC(c2ccccc2)Oc2ccccc21 (stereo not drawn)
TGI [1]: > 100 µM | TGI [2]: > 100 µM | TGI [3]: > 100 µM | TGI [8]: > 100 µM | TGI [4]: 45.5 µM | TGI [5]: 55 µM | TGI [6]: > 100 µM | TGI [7]: 65.8 µM | TGI [10]: > 100 µM

CCOC(=O)c1nc(C)oc1C(F)(F)F
TGI [1]: > 100 µM | TGI [2]: > 100 µM | TGI [3]: > 100 µM | TGI [4]: > 100 µM | TGI [9]: > 100 µM | TGI [5]: > 100 µM | TGI [6]: > 100 µM

Cc1ccc2c(c1)CN1c3ccc(C)cc3CN2C1c1ccccc1O
TGI [1]: > 100 µM | TGI [3]: > 100 µM | TGI [4]: > 100 µM | TGI [9]: > 100 µM | TGI [5]: > 100 µM | TGI [6]: > 100 µM | TGI [7]: 30.5 µM

O=[N+]([O-])c1ccc(Cl)c2c([N+](=O)[O-])cccc12
TGI [2]: > 10 µM | TGI [3]: > 10 µM | TGI [8]: > 10 µM | TGI [4]: > 10 µM | TGI [9]: > 10 µM | TGI [5]: 5.91 µM | TGI [6]: > 10 µM | TGI [7]: > 10 µM | TGI [10]: > 10 µM

CCCCCCCCCCCC[N+]1(CCCCCCCCCCCC)CCCC(C)C1 (stereo not drawn)
GI50 [1]: 0.984 µM | TGI [1]: 2.27 µM | GI50 [2]: 0.303 µM | TGI [2]: 1.38 µM | GI50 [8]: 0.257 µM | TGI [8]: 1.2 µM | GI50 [4]: 0.113 µM | TGI [4]: 0.399 µM | GI50 [9]: 0.197 µM | TGI [9]: 0.569 µM | GI50 [6]: 0.487 µM | TGI [6]: 1.73 µM

C[C@]12Cc3cn[nH]c3C(=O)C1CC[C@@H]1C2CC[C@@]2(C)C1CC[C@@H]2O (stereo partly drawn)
TGI [1]: > 100 µM | TGI [3]: > 100 µM | TGI [4]: > 100 µM | TGI [9]: > 100 µM | TGI [5]: > 100 µM | TGI [6]: > 100 µM | TGI [7]: > 100 µM

O=c1c2ccccc2sc2c(CO)ccc(NCCN3CCCCC3)c12
TGI [1]: 9.45 µM | TGI [3]: 14 µM | TGI [8]: 11.4 µM | TGI [4]: 10.3 µM | TGI [9]: 7.71 µM | TGI [5]: 16.2 µM | TGI [6]: 8.54 µM | TGI [7]: 3.19 µM | TGI [10]: 20.6 µM

N#CC(C(=O)C(=O)Nc1c(Cl)cccc1Cl)c1ccccc1 (stereo not drawn)
GI50 [1]: > 100 µM | TGI [1]: > 100 µM | GI50 [2]: > 100 µM | TGI [2]: > 100 µM | GI50 [3]: > 100 µM | TGI [3]: > 100 µM | GI50 [4]: > 100 µM | TGI [4]: > 100 µM | GI50 [9]: > 100 µM | TGI [9]: > 100 µM | GI50 [5]: > 100 µM | TGI [5]: > 100 µM | GI50 [6]: > 100 µM | TGI [6]: > 100 µM | GI50 [7]: > 100 µM | TGI [7]: > 100 µM
